Values quoted from earlier work in paper PMC10299363 (International Journal of Molecular Sciences, 2023).

Columns and labels:
[1] = tested on: GAL3R
[2] = tested on: chemically induced PDACs; details: subcutaneous injection, rats
Source text: The galaninergic system is also involved in tumorigenesis, the invasion/migration of tumor cells and angiogenesis, and has been correlated with the tumor stage, proliferation, metastasis, and recurrence rate. […] The inactivation of GAL2R by promoter hypermethylation decreased disease-free survival. GAL2R strongly exerted anti-tumor activity via two important mechanisms: (1) tumor cell cycle arrest mediated via the extracellular-regulated protein kinase-1/2 (ERK1/2)-dependent effects on the cyc ...

[3] = tested on: insulin secretion
[4] = tested on: head and neck cancer; details: via activation of PBMCs
[5] = tested on: GAL2R

Row | Substance | breakdown in vivo | binding to GAL3R [1] | number of chemically induced PDACs [2] | effect on insulin secretion [3] | effect in head and neck cancer [4] | binding to GAL2R [5]
1 | linear angiotensin: linear angiotensin (ref 33: radioiodinated angiotensin II) (DRVYIHPF; Angiotensin-2; UniProt P01019 25-32, looked up) | broken down within a minute | – | – | – | – | –
2 | galanin: 30 amino acid peptide that stimulates three subtype receptors (GAL1–3R) | – | binds | reduced the number of chemically induced PDACs | strong inhibitory effects toward insulin secretion | pro-tumor effects | binds
